In patent publication US20260166039A1 (SCHRÖDINGER, INC., priority 2022, published 2026):

Biological target: T1, Wee1 kinase domain (Homo sapiens, UniProt P30291)
T1 construct: Wee1 kinase domain was purchased from Carna (catalog #05-177); purchased Carna 05-177
Experiment: Wee1 Kinase Biochemical Assay (ADP-Glo)
Conditions: class symbols; 1 nM Wee1 enzyme, 15 uM ATP, 4 hours at 25° C.
In short: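 Carna Wee1 kinase domain at 1 nM, with 15 uM ATP and 2 ng/mL poly(Lys,Tyr 4:1) substrate in 40 mM Tris-HCl, 20 mM MgCl2, 0.1 mg/mL BSA, 2 mM DTT, run 4 h at 25° C. ADP formation read by ADP-Glo luminescence. Percent inhibition normalised to DMSO and saturating-inhibitor controls.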

T1 sequence (P30291 299-569 limits assumed): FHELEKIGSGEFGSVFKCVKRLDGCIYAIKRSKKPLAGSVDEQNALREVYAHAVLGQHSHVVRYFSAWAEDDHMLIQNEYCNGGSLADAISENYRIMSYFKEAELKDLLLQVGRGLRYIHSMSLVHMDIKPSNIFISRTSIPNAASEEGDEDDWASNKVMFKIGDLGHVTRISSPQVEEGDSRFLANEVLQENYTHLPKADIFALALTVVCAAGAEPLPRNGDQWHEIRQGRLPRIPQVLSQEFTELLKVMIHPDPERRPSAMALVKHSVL

Row | Structure (SMILES) | IC50
1 | CN1C[C@@H]2C[C@H]1CN2c1ccc(Nc2ncc3c(n2)N(c2cccc(N4C(=O)OCC4(C)C)n2)[C@@H]2CC(C)(C)OC[C@]32C)cc1 [Example 796, 4,4-dimethyl-3-(6-((4bR,8aR)-4b,7,7-trimethyl-2-((4-((1S,4S)-5-methyl-2,5-diazabicyclo[2.2.1]heptan-2-yl)phenyl)amino)-4b,7,8,8a-tetrahydropyrano[3′,4′:4,5]pyrrolo[2,3-d]pyrimidin-9(5H)-yl)pyridin-2-yl)oxazolidin-2-one] | < 10 nM
2 | CN1C[C@H]2C[C@@H]1CN2c1ccc(Nc2ncc3c(n2)N(c2cccc(N4C(=O)CCC4(C)C)n2)[C@@H]2CC(C)(C)OC[C@]32C)cc1 [Example 797, 5,5-dimethyl-1-(6-((4bR,8aR)-4b,7,7-trimethyl-2-((4-((1R,4R)-5-methyl-2,5-diazabicyclo[2.2.1]heptan-2-yl)phenyl)amino)-4b,7,8,8a-tetrahydropyrano[3′,4′:4,5]pyrrolo[2,3-d]pyrimidin-9(5H)-yl)pyridin-2-yl)pyrrolidin-2-one] | < 10 nM
3 | CN1C[C@@H]2C[C@H]1CN2c1ccc(Nc2ncc3c(n2)N(c2cccc(N4C(=O)CCC4(C)C)n2)[C@@H]2CC(C)(C)OC[C@]32C)cc1 [Example 798, 5,5-dimethyl-1-(6-((4bR,8aR)-4b,7,7-trimethyl-2-((4-((1S,4S)-5-methyl-2,5-diazabicyclo[2.2.1]heptan-2-yl)phenyl)amino)-4b,7,8,8a-tetrahydropyrano[3′,4′:4,5]pyrrolo[2,3-d]pyrimidin-9(5H)-yl)pyridin-2-yl)pyrrolidin-2-one] | < 10 nM
4 | CN1C[C@@H]2C[C@H]1CN2c1ccc(Nc2ncc3c(n2)N(c2ccccn2)[C@@H]2CC(C)(C)OC[C@]32C)cc1 [Example 800, (4bR,8aR)-4b,7,7-trimethyl-N-(4-((1S,4S)-5-methyl-2,5-diazabicyclo[2.2.1]heptan-2-yl)phenyl)-9-(pyridin-2-yl)-4b,5,7,8,8a,9-hexahydropyrano[3′,4′:4,5]pyrrolo[2,3-d]pyrimidin-2-amine] | < 10 nM
5 | CN1C[C@H]2C[C@@H]1CN2c1ccc(Nc2ncc3c(n2)N(c2ccccn2)[C@@H]2CC(C)(C)OC[C@]32C)cc1 [Example 801, (4bR,8aR)-4b,7,7-trimethyl-N-(4-((1R,4R)-5-methyl-2,5-diazabicyclo[2.2.1]heptan-2-yl)phenyl)-9-(pyridin-2-yl)-4b,5,7,8,8a,9-hexahydropyrano[3′,4′:4,5]pyrrolo[2,3-d]pyrimidin-2-amine] | < 10 nM
6 | CN1CC[C@@H](n2ccc(Nc3ncc4c(n3)N(c3cccc(N=S(C)(C)=O)n3)[C@@H]3CC(C)(C)OC[C@]43C)cc2=O)C1 [Example 804, 4-(((4bR,8aR)-9-(6-((dimethyl(oxo)-16-sulfaneylidene)amino)pyridin-2-yl)-4b,7,7-trimethyl-4b,5,7,8,8a,9-hexahydropyrano[3′,4′:4,5]pyrrolo[2,3-d]pyrimidin-2-yl)amino)-1-((R)-1-methylpyrrolidin-3-yl)pyridin-2(1H)-one] | < 10 nM
7 | CN1CC[C@H](n2ccc(Nc3ncc4c(n3)N(c3cccc(N=S(C)(C)=O)n3)[C@@H]3CC(C)(C)OC[C@]43C)cc2=O)C1 [Example 805, 4-(((4bR,8aR)-9-(6-((dimethyl(oxo)-16-sulfaneylidene)amino)pyridin-2-yl)-4b,7,7-trimethyl-4b,5,7,8,8a,9-hexahydropyrano[3′,4′:4,5]pyrrolo[2,3-d]pyrimidin-2-yl)amino)-1-((S)-1-methylpyrrolidin-3-yl)pyridin-2(1H)-one] | < 10 nM
8 | CC1(C)C[C@H]2N(c3ccccn3)c3nc(Nc4ccc(N5CCN6CC[C@@H]5C6)cc4)ncc3[C@@]2(C)CO1 [Example 808, (4bR,8aR)-N-(4-((5R)-1,4-diazabicyclo[3.2.1]octan-4-yl)phenyl)-4b,7,7-trimethyl-9-(pyridin-2-yl)-4b,5,7,8,8a,9-hexahydropyrano[3′,4′:4,5]pyrrolo[2,3-d]pyrimidin-2-amine] | < 10 nM

Results, then the compound that gave them:

Row | IC50 | Structure (SMILES)
9 | < 10 nM | CC[C@]1(O)CCc2ccc(N3c4nc(Nc5ccc(N6C[C@H]7C[C@@H]6CN7C)cc5)ncc4[C@@]4(C)COC(C)(C)C[C@@H]34)nc21 [Example 789, (S)-7-ethyl-2-((4bR,8aR)-4b,7,7-trimethyl-2-((4-((1R,4R)-5-methyl-2,5-diazabicyclo[2.2.1]heptan-2-yl)phenyl)amino)-4b,7,8,8a-tetrahydropyrano[3′,4′:4,5]pyrrolo[2,3-d]pyrimidin-9(5H)-yl)-6,7-dihydro-5H-cyclopenta[b]pyridin-7-ol]
10 | < 10 nM | CC[C@@]1(O)CCc2ccc(N3c4nc(Nc5ccc(N6C[C@H]7C[C@@H]6CN7C)cc5)ncc4[C@@]4(C)COC(C)(C)C[C@@H]34)nc21 [Example 790, (R)-7-ethyl-2-((4bR,8aR)-4b,7,7-trimethyl-2-((4-((1R,4R)-5-methyl-2,5-diazabicyclo[2.2.1]heptan-2-yl)phenyl)amino)-4b,7,8,8a-tetrahydropyrano[3′,4′:4,5]pyrrolo[2,3-d]pyrimidin-9(5H)-yl)-6,7-dihydro-5H-cyclopenta[b]pyridin-7-ol]
11 | < 10 nM | CC[C@]1(O)CCc2ccc(N3c4nc(Nc5ccc(N6C[C@@H]7C[C@H]6CN7C)cc5)ncc4[C@@]4(C)COC(C)(C)C[C@@H]34)nc21 [Example 791, (S)-7-ethyl-2-((4bR,8aR)-4b,7,7-trimethyl-2-((4-((1S,4S)-5-methyl-2,5-diazabicyclo[2.2.1]heptan-2-yl)phenyl)amino)-4b,7,8,8a-tetrahydropyrano[3′,4′:4,5]pyrrolo[2,3-d]pyrimidin-9(5H)-yl)-6,7-dihydro-5H-cyclopenta[b]pyridin-7-ol]
12 | < 10 nM | CC[C@@]1(O)CCc2ccc(N3c4nc(Nc5ccc(N6C[C@@H]7C[C@H]6CN7C)cc5)ncc4[C@@]4(C)COC(C)(C)C[C@@H]34)nc21 [Example 792, (R)-7-ethyl-2-((4bR,8aR)-4b,7,7-trimethyl-2-((4-((1S,4S)-5-methyl-2,5-diazabicyclo[2.2.1]heptan-2-yl)phenyl)amino)-4b,7,8,8a-tetrahydropyrano[3′,4′:4,5]pyrrolo[2,3-d]pyrimidin-9(5H)-yl)-6,7-dihydro-5H-cyclopenta[b]pyridin-7-ol]
13 | < 10 nM | C[C@H]1COC(=O)N1c1cccc(N2c3nc(Nc4ccc([C@H]5CCN(C)C5)cc4)ncc3[C@@]3(C)COCC[C@@H]23)n1 [Example 793, (S)-4-methyl-3-(6-((4bR,8aR)-4b-methyl-2-((4-((R)-1-methylpyrrolidin-3-yl)phenyl)amino)-4b,7,8,8a-tetrahydropyrano[3′,4′:4,5]pyrrolo[2,3-d]pyrimidin-9(5H)-yl)pyridin-2-yl)oxazolidin-2-one]
14 | < 10 nM | C[C@H]1COC(=O)N1c1cccc(N2c3nc(Nc4ccc([C@@H]5CCN(C)C5)cc4)ncc3[C@@]3(C)COCC[C@@H]23)n1 [Example 794, (S)-4-methyl-3-(6-((4bR,8aR)-4b-methyl-2-((4-((S)-1-methylpyrrolidin-3-yl)phenyl)amino)-4b,7,8,8a-tetrahydropyrano[3′,4′:4,5]pyrrolo[2,3-d]pyrimidin-9(5H)-yl)pyridin-2-yl)oxazolidin-2-one]
15 | < 10 nM | CN1C[C@H]2C[C@@H]1CN2c1ccc(Nc2ncc3c(n2)N(c2cccc(N4C(=O)OCC4(C)C)n2)[C@@H]2CC(C)(C)OC[C@]32C)cc1 [Example 795, 4,4-dimethyl-3-(6-((4bR,8aR)-4b,7,7-trimethyl-2-((4-((1R,4R)-5-methyl-2,5-diazabicyclo[2.2.1]heptan-2-yl)phenyl)amino)-4b,7,8,8a-tetrahydropyrano[3′,4′:4,5]pyrrolo[2,3-d]pyrimidin-9(5H)-yl)pyridin-2-yl)oxazolidin-2-one]
